According to patent US20190322676A1, “CERAMIDE GALACTOSYLTRANSFERASE INHIBITORS FOR THE TREATMENT OF DISEASE” (BioMarin Pharmaceutical Inc., priority 2016, published 2019):
Counter-ions that a name gives are not always drawn.

Biological target: T1, human CGT (ceramide galactosyltransferase), CHO/CGT lysate (Homo sapiens, UniProt Q16880)
T1 construct: Full-length human CGT cDNA was cloned into the BamH1/Xho1 site of pcDNA3.1 (+); expressed in transfected cells; host or cells: Chinese hamster ovary (CHO) cells; lysate prepared with M-PER
T1 sequence (Q16880 21-541): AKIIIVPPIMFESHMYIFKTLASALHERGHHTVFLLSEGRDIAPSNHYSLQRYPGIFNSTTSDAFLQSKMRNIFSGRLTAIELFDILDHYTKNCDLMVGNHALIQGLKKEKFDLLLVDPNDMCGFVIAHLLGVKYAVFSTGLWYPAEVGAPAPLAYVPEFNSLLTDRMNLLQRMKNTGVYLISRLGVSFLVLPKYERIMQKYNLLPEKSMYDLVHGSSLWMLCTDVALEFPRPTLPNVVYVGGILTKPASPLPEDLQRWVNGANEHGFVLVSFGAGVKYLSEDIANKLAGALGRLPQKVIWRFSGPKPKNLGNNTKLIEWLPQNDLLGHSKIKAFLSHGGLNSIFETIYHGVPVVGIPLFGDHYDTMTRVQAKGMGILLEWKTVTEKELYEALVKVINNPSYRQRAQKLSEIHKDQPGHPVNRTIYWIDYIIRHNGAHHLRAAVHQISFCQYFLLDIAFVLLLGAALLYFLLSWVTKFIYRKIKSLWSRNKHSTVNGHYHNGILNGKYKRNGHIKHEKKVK
Assay: CGT enzyme assay, RapidFire/MS/MS readout with 0.01% Tween added (Table 1 ranges with two asterisks **)
Format: biochemical
Conditions: CGT enzymatic assay; range with two asterisks (**): RapidFire/MS/MS method with 0.01% Tween added
Outline: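 IC50s come from variable-slope dose-response fits of internal-standard-normalized C6-NBD-dihydro-galactosylceramide, measured by RapidFire/MS/MS (ESI negative). Reactions: 1 h, 37 °C, human CGT-expressing CHO lysate (4 μg), 0.001–50 μM compound, 10 μM NBD-dihydro-ceramide, 17.5 μM UDP-galactose, 0.5% DMSO, pH 7.2; 0.01% Tween 80 added for ** values.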

`NC(=NO)C1CCN(C(=O)[C@H](NS(=O)(=O)c2ccc3cc(OC4CCCC4)ccc3c2)C(F)(F)c2ccc(-c3ccc(Cl)cc3)cc2)CC1` [Compound 174-2, (S)-1-(3-(4′-chloro-[1,1′-biphenyl]-4-yl)-2-((6-(cyclopentyloxy)naphthalene)-2-sulfonamido)-3,3-difluoropropanoyl)-N′-hydroxypiperidine-4-carboximidamide] and `N[C@H]1CCN(C(=O)[C@H](NS(=O)(=O)c2ccc3cc(OC4CCCC4)ccc3c2)C(F)(F)c2ccc(-c3ccc(Cl)cc3)cc2)CC1(F)F` [Compound 161-2, N—((S)-3-((S)-4-amino-3,3-difluoropiperidin-1-yl)-1-(4′-chloro-[1,1′-biphenyl]-4-yl)-1,1-difluoro-3-oxopropan-2-yl)-6-(cyclopentyloxy) naphthalene-2-sulfonamide trifluoroacetate] fall in the same range of IC50: 30 to 100 µM for the first, 30 to 100 µM for the second.

First: NC1CC2CCC(C1)N2C(=O)[C@@H](NS(=O)(=O)c1cc2ccc(OC3CCCC3)cc2s1)C(F)(F)c1ccc(Br)cc1 (stereo partly drawn) [Compound 167-1, N-((2R)-3-(3-amino-8-azabicyclo[3.2.1]octan-8-yl)-1-(4-bromophenyl)-1,1-difluoro-3-oxopropan-2-yl)-6-(cyclopentyloxy)benzo[b]thiophene-2-sulfonamide trifluoroacetate]
Second: NC1CC2CCC(C1)N2C(=O)[C@@H](NC(=O)[C@@H](O)c1ccc2cc(OC3CCCC3)ccc2c1)C(F)(F)c1ccc2cc(Br)ccc2c1 (stereo partly drawn) [Compound 158-3, (2S)—N-((2R)-3-(3-amino-8-azabicyclo[3.2.1]octan-8-yl)-1-(6-bromonaphthalen-2-yl)-1,1-difluoro-3-oxopropan-2-yl)-2-(6-(cyclopentyloxy)naphthalen-2-yl)-2-hydroxyacetamide trifluoroacetate]
The IC50 of the first is lower: 1 to 10 µM for the first, 10 to 30 µM for the second.

First: O=C([C@H](NS(=O)(=O)c1ccc(OCC2CCCCC2)cc1)C(F)(F)c1ccc(-c2ccc(Cl)cc2)cc1)N1CC[C@@H]2CNC[C@@H]21 [Compound 195-2, N-((S)-1-(4′-chloro-[1,1′-biphenyl]-4-yl)-1,1-difluoro-3-((3aR,6aR)-hexahydropyrrolo[3,4-b]pyrrol-1(2H)-yl)-3-oxopropan-2-yl)-4-(cyclohexylmethoxy)benzenesulfonamide]
Second: O=C([C@@H](NS(=O)(=O)c1ccc(OCC2CCCCC2)cc1)C(F)(F)c1ccc(-c2ccc(Cl)cc2)cc1)N1CC[C@H]2CNC[C@H]21 [Compound 195-1, N-((R)-1-(4′-chloro-[1,1′-biphenyl]-4-yl)-1,1-difluoro-3-((3aS,6aS)-hexahydropyrrolo[3,4-b]pyrrol-1(2H)-yl)-3-oxopropan-2-yl)-4-(cyclohexylmethoxy)benzenesulfonamide]
The IC50 of the first is higher: 30 to 100 µM for the first, 1 to 10 µM for the second.

First: O=C([C@@H](NS(=O)(=O)c1ccc(OCC2CCCCC2)cc1)C(F)(F)c1ccc(-c2ccc(Cl)cc2)cc1)N1C[C@H]2CNC[C@H]2C1 [Compound 179-1, N—((R)-1-(4′-chloro-[1,1′-biphenyl]-4-yl)-1,1-difluoro-3-((3aR,6aS)-hexahydropyrrolo[3,4-c]pyrrol-2(1H)-yl)-3-oxopropan-2-yl)-4-(cyclohexylmethoxy) benzenesulfonamide trifluoroacetate]
Second: N[C@H]1[C@@H]2CC[C@H]1CN(C(=O)[C@@H](NS(=O)(=O)c1ccc3cc(OC4CCCC4)ccc3c1)C(F)(F)c1ccc(Cl)cc1)C2 [Compound 150-1, N—((R)-3-((1R,5S,8R)-8-amino-3-azabicyclo[3.2.1]octan-3-yl)-1-(4-chlorophenyl)-1,1-difluoro-3-oxopropan-2-yl)-6-(cyclopentyloxy)naphthalene-2-sulfonamide trifluoroacetate]
The IC50 of the first is higher: 1 to 10 µM for the first, less than 1 µM for the second. The second is the more potent here.

`NC1CCN(C(=O)[C@H](N(CC(F)(F)F)S(=O)(=O)c2ccc3cc(OC4CCCC4)ccc3c2)C(F)(F)c2ccc(Br)cc2)CC1` [Compound 187-2, (S)-N-(3-(4-aminopiperidin-1-yl)-1-(4-bromophenyl)-1,1-difluoro-3-oxopropan-2-yl)-6-(cyclopentyloxy)-N-(2,2,2-trifluoroethyl)naphthalene-2-sulfonamide] gave an IC50 of 30 to 100 µM.
